Measurements published in patent US5891864A, “Anti-cancer compositions” (Han; Yung Bok, priority 1995, dated 1999).

How the values were obtained:
[1] = cold / warm water; cited from earlier work
[2] = system: human hepatoma cells SK-HEP-1; assay: MTT in vitro test, cell survival rate of human hepatoma cell line SK-HEP-1; format: cell-based
Protocol: (§1) In vitro test for the effect of the composition (AG60) of the present invention on mouse lung cancer cells 3LL and human hepatoma cells SK-HEP-1
(§2) Cancer cells used for this test include human hepatoma cell line SK-HEP-1 and mouse lung cancer cell line 3LL, as recommended by the U.S. NCI(National Cancer Institute).
(§3) These cell lines were incubated in the culture media prepared by adding 10% inactivated FBS(fetal bovine serum), 100 μg/ml of streptomycin and 100 units/ml of penicillin to RPMI 1640 medium, at 37° C. in an incubator(Heraus) under 5% CO2 and 100% humidity. […] After 2 days, the survival rate of cells was calculated by carrying out MTT method using determination of dehydrogenase enzyme in cellular mitochondria and measuring the absorbance at 540 nm by means of a spectrophotometer (ELISA reader), to determine the anti-cancer activity of the composition according to the present invention against respective cancer cells. MTT test is a method in which formazan precipitate formed by reduction of MTT with cellular mitochondria dehydrogenase in living cells is dissolved and then the absorbance is measured. Thus, since in vigorously dividing cancer cells the enzyme is fully active, by the action of enzyme MTT is reduced to form the precipitate which can be dissolved to determine the absorbance, thereby identifying the survival rate of respective cells. […]

[3] = system: mouse lung cancer cells 3LL; assay: MTT in vitro test, cell survival rate of mouse lung cancer cell line 3LL; format: cell-based
Protocol: as §1, §2, §3

[4] = system: Ehrlich solid tumor; assay: Comparative test for inhibition of Ehrlich solid tumor proliferation; format: in vivo, mouse; conditions: An 15, Gh 15, AG60 30 mg/kg; for size of cancer tissue (solid tumor proliferation): i.m. once a day
Protocol: Comparative test for inhibition of Ehrlich solid tumor proliferation with acriflavine neutral(An), guanosine hydrate(Gh) and the composition(AG60) of the present invention
Normal 20 ICR mice(.male., 20±1 g) were divided into 4 groups such that each group included 5 mice. Ehrlich cancer cells were transplanted into the inguinal area of all experimental animals in an amount of 1×10^7 cells per animal. After 24 hours, the control group A received physiological saline in an amount of 10 ml/kg by intramuscular injection, once a day, for 15 days. As the comparative groups, the groups B and C received acriflavine neutral(An) in an amount of 15 mg/kg and guanosine hydrate(Gh) in an amount of 15 mg/kg, respectively, in the same manner as the control group. To the group D the composition (AG60) of the present invention was administered in an amount of 30 mg/kg in the same manner as the control group. During 15 days after the transplantation of cancer cells the proliferation of solid tumor in each group was observed.
The effects on the solid tumor proliferation of the composition(AG60) of the present invention, acriflavine neutral(An) and guanosine hydrate(Gh) were determined by measuring the size of cancer tissues in control group A, the acriflavine neutral group B, the guanosine hydrate group C and the present composition(AG60) group D from the fifth day to the fifteenth day after the transplantation of cancer cells at an interval of 2 days, and are presented in Table 3 and FIG. 5. […] In group D to which the composition(AG60) of the present invention was administered, the size of cancer tissue was measured as 1.5 mm after 5 days from transplantation and, thereafter, increased 0.35 mm every 2 days.

Row | Compound | solubility in water [1] | IC50 ([2]; Homo sapiens, SK-HEP1, 48 h, read-out: ID value (survival rate of cells)) [µg/mL] | cytotoxicity / anti-cancer activity in words ([2]; SK-HEP-1 cells) | cytotoxicity / anti-cancer activity in words ([3]; 3LL cells) | IC50 ([3]; Mus musculus, 3LL, 48 h, read-out: ID value (survival rate of cells)) [µg/mL] | size of cancer tissue (solid tumor proliferation) ([4]; day 5) [mm] | size of cancer tissue (solid tumor proliferation) ([4]; day 7) [mm] | size of cancer tissue (solid tumor proliferation) ([4]; day 9) [mm] | size of cancer tissue (solid tumor proliferation) ([4]; day 11) [mm] | size of cancer tissue (solid tumor proliferation) ([4]; day 13) [mm] | size of cancer tissue (solid tumor proliferation) ([4]; day 15) [mm] | inhibition of solid tumor proliferation in words ([4]; i.m. once a day for 15 days)
1 | Nc1nc2c(ncn2[C@@H]2O[C@H](CO)[C@@H](O)[C@H]2O)c(=O)[nH]1 [Guanosine, 2-amino-9-β-D-ribofuranosyl-9H-purin-6-(1H)-one] | slighly soluble in cold water but soluble in warm water |  |  |  |  |  |  |  |  |  |  | 
2 | Nc1nc2c(ncn2[C@@H]2O[C@H](CO)[C@@H](O)[C@H]2O)c(=O)[nH]1.O [Guanosine hydrate] |  | 1530 | did not show any anti-cancer activity | did not show any anti-cancer activity | 1520 | 4.7 | 6.8 | 8.5 | 12.3 | 14.5 | 18.2 | showed the similar proliferation pattern to each other
